According to patent US11608335B2, “Somatostatin modulators and uses thereof” (CRINETICS PHARMACEUTICALS, INC., priority 2018, dated 2023):

Biological target: human somatostatin receptor subtype 5 (Homo sapiens, UniProt P35346)
Assay: cAMP assay for SST5R (inhibition of cAMP via human SST5 receptor)

human somatostatin receptor subtype 5, sequence (P35346 whole entry): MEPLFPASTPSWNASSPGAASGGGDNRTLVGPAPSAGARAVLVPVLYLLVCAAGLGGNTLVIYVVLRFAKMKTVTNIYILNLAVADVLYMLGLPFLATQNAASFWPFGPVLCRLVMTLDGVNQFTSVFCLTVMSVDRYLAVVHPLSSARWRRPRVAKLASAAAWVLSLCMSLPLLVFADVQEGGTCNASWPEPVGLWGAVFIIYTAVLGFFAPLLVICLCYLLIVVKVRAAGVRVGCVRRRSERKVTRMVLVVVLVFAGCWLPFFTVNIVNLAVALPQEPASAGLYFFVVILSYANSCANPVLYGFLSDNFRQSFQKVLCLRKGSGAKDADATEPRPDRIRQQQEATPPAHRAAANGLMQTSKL

Compound	EC50	Fold selectivity for SST5 vs SST2 (SST5 over SST2, class symbols)
NCC1CN(c2c(-c3ccccc3)cncc2-c2nc3c(F)cc(F)cc3[nH]2)C1 [Compound 1-27, 1-{1-[3-(4,6-difluoro-1H-1,3-benzodiazol-2-yl)-5-phenylpyridin-4-yl]azetidin-3-yl}methanamine]	10 to 100 nM	–
N#Cc1cc(F)cc(-c2cncc(-c3nc4ccc(F)c(F)c4[nH]3)c2N2CC[C@H](N)C2)c1 [Compound 2-99, 3-{4-[(3S)-3-aminopyrrolidin-1-yl]-5-(4,5-difluoro-1H-1,3-benzodiazol-2-yl)pyridin-3-yl}-5-fluorobenzonitrile]	< 10 nM	–
Cc1cc(F)cc(-c2cncc(-c3nc4cc(Cl)cc(F)c4[nH]3)c2N2CC(CN)C2)c1 [Compound 1-18, 1-{1-[3-(6-chloro-4-fluoro-1H-1,3-benzodiazol-2-yl)-5-(3-fluoro-5-methylphenyl)pyridin-4-yl]azetidin-3-yl}methanamine]	10 to 100 nM	–
Cc1ccc(F)c(-c2cncc(-c3nc4cc(F)cc(F)c4[nH]3)c2N2CC(CN)C2)c1 [Compound 1-45, 1-{1-[3-(4,6-difluoro-1H-1,3-benzodiazol-2-yl)-5-(2-fluoro-5-methylphenyl)pyridin-4-yl]azetidin-3-yl}methanamine]	10 to 100 nM	–
COc1cc(F)cc2nc(-c3cncc(-c4cc(C)cc(F)c4)c3N3CC(CN)C3)[nH]c12 [Compound 1-15, 1-{1-[3-(6-fluoro-4-methoxy-1H-1,3-benzodiazol-2-yl)-5-(3-fluoro-5-methylphenyl)pyridin-4-yl]azetidin-3-yl}methanamine]	10 to 100 nM	–
N#Cc1cc(-c2cncc(-c3nc4cccc(Cl)c4[nH]3)c2N2CC[C@H](N)C2)ccn1 [Compound 2-161, 4-[(3S)-3-aminopyrrolidin-1-yl]-5-(4-chloro-1H-1,3-benzodiazol-2-yl)-[3,4′-bipyridine]-2′-carbonitrile]	< 10 nM	–
CCOc1ccc(-c2cncc(-c3nc4c(F)cc(F)cc4[nH]3)c2N2CC(C(C)N)C2)cc1F (stereo not drawn) [Compound 1-72, 1-{1-[3-(4,6-difluoro-1H-1,3-benzodiazol-2-yl)-5-(4-ethoxy-3-fluorophenyl)pyridin-4-yl]azetidin-3-yl}ethan-1-amine]	10 to 100 nM	–
Cc1cc(F)cc(-c2cncc(-c3nc4cc(C#N)c(F)cc4[nH]3)c2N2CC(CN)C2)c1 [Compound 1-17, 2-{4-[3-(aminomethyl)azetidin-1-yl]-5-(3-fluoro-5-methylphenyl)pyridin-3-yl}-6-fluoro-1H-1,3-benzodiazole-5-carbonitrile]	100 to 1000 nM	–
N#Cc1cccc(-c2cncc(-c3nc4c(F)c(F)c(F)c(F)c4[nH]3)c2N2CC[C@H](N)C2)c1 [Compound 2-41, 3-{4-[(3S)-3-aminopyrrolidin-1-yl]-5-(4,5,6,7-tetrafluoro-1H-1,3-benzodiazol-2-yl)pyridin-3-yl}benzonitrile]	10 to 100 nM	–
Cc1cc(F)cc(-c2cncc(-c3nc4cnccc4[nH]3)c2N2CC(CN)C2)c1 [Compound 1-22, 1-{1-[3-(3-fluoro-5-methylphenyl)-5-{3H-imidazo[4,5-c]pyridin-2-yl}pyridin-4-yl]azetidin-3-yl}methanamine]	100 to 1000 nM	–
Cc1cc(C)cc(-c2cncc(-c3nc4cc(F)cc(F)c4[nH]3)c2N2CC(CN)C2)c1 [Compound 1-19, 1-{1-[3-(4,6-difluoro-1H-1,3-benzodiazol-2-yl)-5-(3,5-dimethylphenyl)pyridin-4-yl]azetidin-3-yl}methanamine]	10 to 100 nM	–
Cc1cccc2cc(-c3cncc(-c4cc(F)cc(C#N)c4)c3N3CC[C@H](N)C3)[nH]c12 [Compound 2-137, 3-{4[(3S)-3-aminopyrrolidin-1-yl]-5-(7-methyl-1H-indol-2-yl)pyridin-3-yl}-5-fluorobenzonitrile]	10 to 100 nM	–
NCC1CN(c2c(-c3nc4c(F)cc(F)cc4[nH]3)cncc2-c2ccccc2F)C1 [Compound 1-44, 1-{1-[3-(4,6-difluoro-1H-1,3-benzodiazol-2-yl)-5-(2-fluorophenyl)pyridin-4-yl]azetidin-3-yl}methanamine]	100 to 1000 nM	–
Cc1c(Cl)cccc1-c1cncc(-c2nc3cc(F)cc(F)c3[nH]2)c1N1CC(CN)C1 [Compound 1-66, 1-{1-[3-(3-chloro-2-methylphenyl)-5-(4,6-difluoro-1H-1,3-benzodiazol-2-yl)pyridin-4-yl]azetidin-3-yl}methanamine]	10 to 100 nM	–
Cc1ccc(F)cc1-c1cncc(-c2nc3cc(F)cc(F)c3[nH]2)c1N1CC(CN)C1 [Compound 1-46, 1-{1-[3-(4,6-difluoro-1H-1,3-benzodiazol-2-yl)-5-(5-fluoro-2-methylphenyl)pyridin-4-yl]azetidin-3-yl}methanamine]	10 to 100 nM	–
COc1c(F)cccc1-c1cncc(-c2nc3cc(F)cc(F)c3[nH]2)c1N1CC(C(C)N)C1 (stereo not drawn) [Compound 1-73, 1-{1-[3-(4,6-difluoro-1H-1,3-benzodiazol-2-yl)-5-(3-fluoro-2-methoxyphenyl)pyridin-4-yl]azetidin-3-yl}ethan-1-amine]	< 10 nM	–
N#Cc1ccc(-c2cncc(-c3nc4c(F)cccc4[nH]3)c2N2CC[C@H](N)C2)cc1F [Compound 2-35, 4-{4-[(3S)-3-aminopyrrolidin-1-yl]-5-(4-fluoro-1H-1,3-benzodiazol-2-yl)pyridin-3-yl}-2-fluorobenzonitrile]	10 to 100 nM	–
N#Cc1cccc(-c2cncc(-c3nc4c(F)cccc4[nH]3)c2N2C[C@@H](N)[C@H](C(N)=O)C2)c1 (racemic) [Compound 2-69, trans-4-amino-1-[3-(3-cyanophenyl)-5-(4-fluoro-1H-1,3-benzodiazol-2-yl)pyridin-4-yl]pyrrolidine-3-carboxamide]	> 1000 nM	–
CON=Cc1cc(F)cc(-c2cncc(-c3nc4c(F)cccc4[nH]3)c2N2CC[C@H](N)C2)c1 [Compound 2-9, (3S)-1-[3-(4-fluoro-1H-1,3-benzodiazol-2-yl)-5-{3-fluoro-5-[(methoxyimino)methyl]phenyl}pyridin-4-yl]pyrrolidin-3-amine]	10 to 100 nM	–
Cc1ccc(-c2cncc(-c3nc4cc(F)cc(F)c4[nH]3)c2N2CC(CN)C2)cc1F [Compound 1-55, 1-{1-[3-(4,6-difluoro-1H-1,3-benzodiazol-2-yl)-5-(3-fluoro-4-methylphenyl)pyridin-4-yl]azetidin-3-yl}methanamine]	10 to 100 nM	–
NCC1CN(c2c(-c3cc(Cl)cc(Cl)c3)cncc2-c2nc3cc(F)cc(F)c3[nH]2)C1 [Compound 1-60, 1-{1-[3-(3,5-dichlorophenyl)-5-(4,6-difluoro-1H-1,3-benzodiazol-2-yl)pyridin-4-yl]azetidin-3-yl}methanamine]	< 10 nM	–

Other lines, results leading:

EC50	Fold selectivity for SST5 vs SST2 (SST5 over SST2, class symbols)	Compound
< 10 nM	–	Cc1ccnc2[nH]c(-c3cncc(-c4cc(F)cc(C(N)=O)c4)c3N3CC[C@](C)(N)C3)nc12 [Compound 2-169, 3-{4-[(3S)-3-amino-3-methylpyrrolidin-1-yl]-5-{7-methyl-1H-imidazo[4,5-b]pyridin-2-yl}pyridin-3-yl}-5-fluorobenzamide]
–	+++ (+++=≥500)	COc1cccc(-c2cncc(-c3nc4cccc(F)c4[nH]3)c2N2CCC(C)(N)C2)c1 (stereo not drawn) [Compound 2-11, 1-[3-(4-fluoro-1H-1,3-benzodiazol-2-yl)-5-(3-methoxyphenyl)pyridin-4-yl]-3-methylpyrrolidin-3-amine]
> 1000 nM	–	COc1ccc(-c2cncc(-c3nc4cccc(F)c4[nH]3)c2N2CC[C@H](N)C2)cc1C(N)=O [Compound 2-73, 5-{4-[(3S)-3-aminopyrrolidin-1-yl]-5-(4-fluoro-1H-1,3-benzodiazol-2-yl)pyridin-3-yl}-2-methoxybenzamide]
10 to 100 nM	–	COc1ccc(-c2cncc(-c3nc4c(C#N)ccnc4[nH]3)c2N2CC[C@](C)(N)C2)cc1C#N [Compound 2-179, 2-{4-[(3S)-3-mino-3-methylpyrrolidin-1-yl]-5-(3-cyano-4-methoxyphenyl)pyridin-3-yl}-1H-imidazo[4,5-b]pyridine-7-carbonitrile]
< 10 nM	–	Cc1cc(C)c2nc(-c3cncc(-c4cccc(C#N)c4)c3N3CC[C@](C)(N)C3)[nH]c2n1 [Compound 2-173, 3-{4-[(3S)-3-amino-3-methylpyrrolidin-1-yl]-5-{5,7-dimethyl-1H-imidazo[4,5-b]pyridin-2-yl}pyridin-3-yl}benzonitrile]
< 10 nM	–	Cc1nccc2nc(-c3cncc(-c4ccc(F)c(C#N)c4)c3N3CCC(C)(N)C3)[nH]c12 (stereo not drawn) [Compound 2-159, 5-[4-(3-amino-3-methylpyrrolidin-1-yl)-5-{4-methyl-3H-imidazo[4,5-c]pyridin-2-yl}pyridin-3-yl]-2-fluorobenzonitrile]
100 to 1000 nM	–	N#Cc1cccc(-c2cncc(-c3nc4cccc(F)c4[nH]3)c2N2C[C@@H](N)[C@H](c3ccccc3)C2)c1 (racemic) [Compound 2-56, 3-{4-[trans-3-amino-4-phenylpyrrolidin-1-yl]-5-(4-fluoro-1H-1,3-benzodiazol-2-yl)pyridin-3-yl}benzonitrile]
100 to 1000 nM	–	N#Cc1ccc(-c2cncc(-c3nc4cccc(F)c4[nH]3)c2N2CC[C@H](N)C2)cc1 [Compound 2-42, 4-{4-[(3S)-3-aminopyrrolidin-1-yl]-5-(4-fluoro-1H-1,3-benzodiazol-2-yl)pyridin-3-yl}benzonitrile]
> 1000 nM	–	Cc1cccc2nc(-c3cncc(-c4cc(F)c(F)c(C(=O)O)c4)c3N3CCC(C)(N)C3)[nH]c12 (stereo not drawn) [Compound 2-126, 5-[4-(3-amino-3-methylpyrrolidin-1-yl)-5-(4-methyl-1H-1,3-benzodiazol-2-yl)pyridin-3-yl]-2,3-difluorobenzoic acid]
10 to 100 nM	–	CC1(N)CCN(c2c(-c3cccc(-n4ccnc4)c3)cncc2-c2nc3cccc(F)c3[nH]2)C1 (stereo not drawn) [Compound 2-53, 1-[3-(4-fluoro-1H-1,3-benzodiazol-2-yl)-5-[3-(1H-imidazol-1-yl)phenyl]pyridin-4-yl]-3-methylpyrrolidin-3-amine]
< 10 nM	–	N#Cc1c(F)ccc(-c2cncc(-c3nc4cccc(F)c4[nH]3)c2N2CC[C@H](N)C2)c1F [Compound 2-32, 3-{4-[(3S)-3-aminopyrrolidin-1-yl]-5-(4-fluoro-1H-1,3-benzodiazol-2-yl)pyridin-3-yl}-2,6-difluorobenzonitrile]
< 10 nM	–	NC(=O)c1cc(F)cc(-c2cncc(-c3nc4cccc(F)c4[nH]3)c2N2CC[C@H](N)C2)c1 [Compound 2-72, 3-{4-[(3S)-3-aminopyrrolidin-1-yl]-5-(4-fluoro-1H-1,3-benzodiazol-2-yl)pyridin-3-yl}-5-fluorobenzamide]
